Results taken from patent publication US20230012570A1, “BICYCLIC COMPOUND USED AS SELECTIVE ANDROGEN RECEPTOR MODULATOR” (MEDSHINE DISCOVERY INC., priority 2019, published 2023).

Key:
Format in all cases: in vitro ADME
CYP2C9 = target: T1, CYP2C9 (Homo sapiens, UniProt P11712); experiment: Human liver microsomal CYP inhibition experiment, CYP2C9
T1 construct: Mixed human liver microsomes (HLM) were purchased from Corning Inc; tissue Corning Inc. or XenoTech, LLC. or other suppliers; host or cells: pooled human liver microsomes
Procedure: (§1) Experiment Embodiment 4: Human Liver Microsomal CYP Inhibition Experiment
(§2) The inhibitory effects of the test compound 3A and VK5211 on the activities of human liver microsomal cytochrome P450 isozymes (CYP1A2, CYP2C9, CYP2C19, CYP2D6 and CYP3A4) were determined.
(§3) Mixed human liver microsomes (HLM) were purchased from Corning Inc. (Steuben, New York, USA) or XenoTech, LLC. (Lenexa, Kans., USA) or other suppliers, and were stored at a temperature below −60° C. before use.
(§4) First, the test compound (10.0 mM) was gradient diluted to prepare working solution (100×final concentration), and the concentrations of the working solution were: 5.00, 1.50, 0.500, 0.150, 0.0500, 0.0150, 0.00500 mM, and a working solution of each positive inhibitor of P450 isozymes (CYP1A2, CYP2C9, CYP2C19, CYP2D6, and CYP3A4) and a specific substrate mixture thereof (5 in 1) were prepared at the same time; human liver microsomes stored in a refrigerator at a temperature lower than −60° C. were put on ice to thaw, and when all the human liver microsomes were dissolved, the microsomes were diluted with potassium phosphate buffer (PB) to prepare a working solution of a certain concentration (0.253 mg/mL). […] The concentration of metabolites produced by the probe substrate in the sample was determined by liquid chromatography-tandem mass spectrometry (LC-MS/MS) method. […]

CYP1A2 = target: T2, CYP1A2 (Homo sapiens, UniProt P05177); experiment: Human liver microsomal CYP inhibition experiment, CYP1A2
T2 construct: Mixed human liver microsomes (HLM) were purchased from Corning Inc; tissue Corning Inc. or XenoTech, LLC. or other suppliers; host or cells: pooled human liver microsomes
T2 sequence (P05177 1-516): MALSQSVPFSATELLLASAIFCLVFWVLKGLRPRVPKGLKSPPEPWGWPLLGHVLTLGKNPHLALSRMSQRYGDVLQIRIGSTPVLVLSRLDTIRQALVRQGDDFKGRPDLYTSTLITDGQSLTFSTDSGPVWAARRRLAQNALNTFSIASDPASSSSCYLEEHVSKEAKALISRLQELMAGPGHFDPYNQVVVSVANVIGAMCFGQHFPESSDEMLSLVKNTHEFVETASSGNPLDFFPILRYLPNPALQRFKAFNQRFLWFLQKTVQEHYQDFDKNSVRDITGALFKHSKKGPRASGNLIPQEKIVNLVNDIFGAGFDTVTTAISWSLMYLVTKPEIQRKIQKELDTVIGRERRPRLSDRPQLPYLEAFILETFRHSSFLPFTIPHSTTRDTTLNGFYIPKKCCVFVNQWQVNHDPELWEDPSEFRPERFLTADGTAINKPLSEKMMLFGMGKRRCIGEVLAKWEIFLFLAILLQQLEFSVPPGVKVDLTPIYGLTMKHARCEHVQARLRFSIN
Procedure: as §1, §2, §3, §4

CYP3A4 = target: T3, CYP3A4 (Homo sapiens, UniProt P08684); experiment: Human liver microsomal CYP inhibition experiment, CYP3A4
T3 construct: Mixed human liver microsomes (HLM) were purchased from Corning Inc; tissue Corning Inc. or XenoTech, LLC. or other suppliers; host or cells: pooled human liver microsomes
Procedure: as §1, §2, §3, §4

CYP2C19 = target: T4, CYP2C19 (Homo sapiens, UniProt P33261); experiment: Human liver microsomal CYP inhibition experiment, CYP2C19
T4 construct: Mixed human liver microsomes (HLM) were purchased from Corning Inc; tissue Corning Inc. or XenoTech, LLC. or other suppliers; host or cells: pooled human liver microsomes
Procedure: as §1, §2, §3, §4

CYP2D6 = target: T5, CYP2D6 (Homo sapiens, UniProt P10635); experiment: Human liver microsomal CYP inhibition experiment, CYP2D6
T5 construct: Mixed human liver microsomes (HLM) were purchased from Corning Inc; tissue Corning Inc. or XenoTech, LLC. or other suppliers; host or cells: pooled human liver microsomes
Procedure: as §1, §2, §3, §4

T4 sequence (P33261 whole entry): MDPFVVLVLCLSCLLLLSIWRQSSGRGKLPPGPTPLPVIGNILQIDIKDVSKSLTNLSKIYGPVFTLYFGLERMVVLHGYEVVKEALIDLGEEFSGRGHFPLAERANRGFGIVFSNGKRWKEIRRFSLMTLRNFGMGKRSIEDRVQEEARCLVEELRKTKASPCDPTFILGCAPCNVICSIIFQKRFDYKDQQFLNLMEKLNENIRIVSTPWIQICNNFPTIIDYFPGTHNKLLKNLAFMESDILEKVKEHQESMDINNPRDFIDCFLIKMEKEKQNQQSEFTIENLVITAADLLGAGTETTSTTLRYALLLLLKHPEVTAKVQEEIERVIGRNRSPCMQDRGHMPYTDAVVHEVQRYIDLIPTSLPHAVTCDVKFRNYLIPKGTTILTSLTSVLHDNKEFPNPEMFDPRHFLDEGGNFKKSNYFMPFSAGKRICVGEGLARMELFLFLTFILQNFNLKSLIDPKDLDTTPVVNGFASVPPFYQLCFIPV
T1 sequence (P11712 whole entry): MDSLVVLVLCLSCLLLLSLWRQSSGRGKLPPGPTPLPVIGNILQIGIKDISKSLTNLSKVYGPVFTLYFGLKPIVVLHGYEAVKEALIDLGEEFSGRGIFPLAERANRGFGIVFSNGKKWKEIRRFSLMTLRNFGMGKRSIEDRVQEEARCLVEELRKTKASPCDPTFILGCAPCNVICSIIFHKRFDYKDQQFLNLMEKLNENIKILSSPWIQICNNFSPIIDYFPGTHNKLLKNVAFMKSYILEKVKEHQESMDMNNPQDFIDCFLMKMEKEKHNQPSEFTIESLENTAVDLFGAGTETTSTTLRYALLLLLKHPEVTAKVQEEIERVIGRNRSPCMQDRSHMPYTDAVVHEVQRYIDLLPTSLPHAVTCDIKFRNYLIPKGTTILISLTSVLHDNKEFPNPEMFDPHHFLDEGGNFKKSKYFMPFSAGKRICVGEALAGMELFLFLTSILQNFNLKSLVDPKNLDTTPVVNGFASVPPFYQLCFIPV
T5 sequence (P10635 whole entry): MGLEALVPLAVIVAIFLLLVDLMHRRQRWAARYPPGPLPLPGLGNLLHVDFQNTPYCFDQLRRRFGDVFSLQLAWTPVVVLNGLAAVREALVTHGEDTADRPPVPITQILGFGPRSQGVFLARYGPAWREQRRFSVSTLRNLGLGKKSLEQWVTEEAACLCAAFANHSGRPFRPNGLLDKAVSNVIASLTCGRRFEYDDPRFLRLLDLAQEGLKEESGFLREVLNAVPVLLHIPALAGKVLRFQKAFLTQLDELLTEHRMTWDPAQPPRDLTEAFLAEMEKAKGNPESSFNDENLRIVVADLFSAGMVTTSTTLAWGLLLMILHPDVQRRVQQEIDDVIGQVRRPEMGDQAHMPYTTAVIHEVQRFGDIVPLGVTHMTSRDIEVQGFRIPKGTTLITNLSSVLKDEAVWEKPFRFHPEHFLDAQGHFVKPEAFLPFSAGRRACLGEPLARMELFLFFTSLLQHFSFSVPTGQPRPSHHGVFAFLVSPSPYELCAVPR
T3 sequence (P08684 whole entry): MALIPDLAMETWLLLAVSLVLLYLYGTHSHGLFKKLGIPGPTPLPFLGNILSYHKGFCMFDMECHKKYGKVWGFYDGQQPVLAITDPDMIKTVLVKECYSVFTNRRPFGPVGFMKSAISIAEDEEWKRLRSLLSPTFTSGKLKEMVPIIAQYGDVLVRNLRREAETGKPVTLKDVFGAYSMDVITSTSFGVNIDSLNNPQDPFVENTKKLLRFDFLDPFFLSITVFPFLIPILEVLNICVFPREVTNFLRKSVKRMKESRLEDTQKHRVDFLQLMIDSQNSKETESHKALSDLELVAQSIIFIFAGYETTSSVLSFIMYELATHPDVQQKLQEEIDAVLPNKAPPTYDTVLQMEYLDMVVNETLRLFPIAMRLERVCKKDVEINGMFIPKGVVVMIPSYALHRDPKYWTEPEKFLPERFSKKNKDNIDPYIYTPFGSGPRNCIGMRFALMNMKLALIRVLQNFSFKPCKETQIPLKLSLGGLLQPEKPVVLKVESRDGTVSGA

N#Cc1ccc(N2CCC[C@@H]2[C@@H](O)C(F)(F)F)cc1C(F)(F)F [VK5211, reference compound]
IC50 (CYP2C9): 5.84 µM | IC50 (CYP1A2): 4.44 µM | IC50 (CYP3A4): 44.7 µM | IC50 (CYP2C19): 4.23 µM | IC50 (CYP2D6): 7.67 µM
